Measured values taken from patent publication EP4707280A1, “1,4-CINEOLE DERIVATIVE AND INTERMEDIATE THEREOF, HERBICIDE CONTAINING SAID DERIVATIVE AS ACTIVE INGREDIENT, METHOD FOR USING HERBICIDE, AND METHOD FOR PREPARING AGROCHEMICAL COMPOSITION” (HOKKO CHEMICAL INDUSTRY CO., LTD., priority 2023, dated 2024).

Columns and labels:
Type in all cases: in vivo
Digitaria ciliaris [1] = assay: Test Example 3: herbicidal effect test by soil application in upland field; conditions: Digitaria ciliaris, 120 g per 10 ares, sprayed one day after sowing, 14 days after application, read-out: weed inhibition rate
Summary of the method: (§1)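 Weed inhibition (%) was assessed 14 days after treatment, in duplicate per concentration group. Seeds had been mixed into the upper 1 cm of upland alluvial loam, and the soil surface was sprayed one day later with the diluted emulsifiable concentrate at 120 g active ingredient per 10 ares.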

Echinochloa crus-galli [2] = assay: as above; conditions: Echinochloa crus-galli, 120 g per 10 ares, sprayed one day after sowing, 14 days after application, read-out: weed inhibition rate
Summary of the method: as §1

[3] = test system: Echinochloa crus-galli var. formosensis; assay: Test Example 1: herbicidal effect test by soil application in paddy rice; conditions: Echinochloa crus-galli, soil, 336 h; 120 g active ingredient per 10 ares; applied immediately after sowing, flooded pots; 14 days after application; read-out: weed inhibition rate
Summary of the method: (§2)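 Treatment: 120 g active ingredient per 10 ares as a water-diluted emulsifiable concentrate, dropped onto flooded pots immediately after sowing. Thirty seeds per species went 0–1 cm into puddled paddy soil with 16:16:16 fertilizer, with ~3 cm flooding maintained in a glass greenhouse.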

Digitaria ciliaris [4] = assay: Test Example 4: herbicidal effect test by stem and leaf treatment in upland field; conditions: Digitaria ciliaris; 120 g per 10 ares; sprayed seven days after sowing, upland soil; 14 days after application; read-out: weed inhibition rate
Echinochloa crus-galli [5] = assay: as above; conditions: Echinochloa crus-galli; 120 g per 10 ares; sprayed seven days after sowing, upland soil; 14 days after application; read-out: weed inhibition rate
Monochoria vaginalis [6] = assay: Test Example 1: herbicidal effect test by soil application in paddy rice; conditions: Pontederia vaginalis, soil, 336 h; 120 g active ingredient per 10 ares; applied immediately after sowing, flooded pots; 14 days after application; read-out: weed inhibition rate
Method: Wagner pots with an area of […] were filled with paddy soil, followed by addition of water and incorporation of chemical fertilizer (N:P:K = 16:16:16), after which puddling was performed. After that, seeds of Echinochloa crus-galli var. formosensis, broad-leaved weeds (Lindernia pyxidaria and Monochoria vaginalis), and Scirpus juncoides were sown at a depth of 0 cm to 1 cm, 30 seeds each. Immediately after sowing, the pots were flooded and a water depth of approximately 3 cm was maintained. Subsequent management was conducted in a glass greenhouse. Immediately thereafter, an emulsifiable concentrate prepared according to Formulation Example 5 using the compound shown below was diluted with water, and a specified amount of the diluted solution was applied by dropper. The amount of the active ingredient to be applied was equivalent to 120 g per 10 ares.
The present test was conducted in duplicate for each chemical concentration group, and the weed inhibition rate (%) was determined 14 days after chemical application using the following formula (Math. 1). [formula]

Monochoria vaginalis [7] = assay: Test Example 2: herbicidal effect test by application during growth period of paddy rice; conditions: Pontederia vaginalis; 120 g per 10 ares; applied seven days after sowing, flooded pots; 14 days after application; read-out: weed inhibition rate
Summary of the method: (§3)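 Steps: puddle fertilized paddy soil; sow 30 seeds of each weed at 0–1 cm; flood to roughly 3 cm and keep in a glasshouse; at day 7 drop in diluted emulsifiable concentrate (120 g a.i. per 10 ares); score inhibition (%) 14 days later, two replicates.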

[8] = test system: Echinochloa crus-galli var. formosensis; assay: as above; conditions: Echinochloa crus-galli; 120 g per 10 ares; applied seven days after sowing, flooded pots; 14 days after application; read-out: weed inhibition rate
Summary of the method: as §3

Scirpus juncoides [9] = assay: Test Example 1: herbicidal effect test by soil application in paddy rice; conditions: Schoenoplectiella juncoides, soil, 336 h; 120 g active ingredient per 10 ares; applied immediately after sowing, flooded pots; 14 days after application; read-out: weed inhibition rate
Summary of the method: as §2

Scirpus juncoides [10] = assay: Test Example 2: herbicidal effect test by application during growth period of paddy rice; conditions: Schoenoplectiella juncoides; 120 g per 10 ares; applied seven days after sowing, flooded pots; 14 days after application; read-out: weed inhibition rate
Summary of the method: as §3

[11] = test system: Echinochloa crus-galli var. formosensis; assay: Test Example 6: herbicidal effect test by application during growth period of paddy rice (low dose); conditions: Echinochloa crus-galli; 7.5 g per 10 ares; applied seven days after sowing, flooded pots; 14 days after application; read-out: weed inhibition rate
Summary of the method: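 Formulated compound, diluted in water, was dropped onto flooded pots seven days post-sowing at 7.5 g a.i. per 10 ares. Seeds had been sown 0-1 cm deep in puddled paddy soil under ~3 cm water in a glass greenhouse. Inhibition (%) assessed at 14 days; duplicate pots.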

Digitaria ciliaris [12] = assay: Test Example 7: herbicidal effect test by soil application in upland field (low dose); conditions: Digitaria ciliaris, 7.5 g per 10 ares, sprayed one day after sowing, 14 days after application, read-out: weed inhibition rate
Summary of the method: (§4)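 Upland soil (alluvial loam) pots, seeds mixed into top 1 cm layer → EC formulation diluted with water, sprayed onto soil 1 d post-sowing, 100 L/10 a → 7.5 g a.i./10 a → inhibition (%) scored at 14 d, n=2.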

Echinochloa crus-galli [13] = assay: as above; conditions: Echinochloa crus-galli, 7.5 g per 10 ares, sprayed one day after sowing, 14 days after application, read-out: weed inhibition rate
Summary of the method: as §4

[14] = test system: Echinochloa crus-galli var. formosensis; assay: Test Example 5: herbicidal effect test by soil application in paddy rice (low dose); conditions: Echinochloa crus-galli, soil, 336 h; 7.5 g per 10 ares; applied immediately after sowing, flooded pots; 14 days after application; read-out: weed inhibition rate
Summary of the method: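 Flooded-paddy soil application at low dose (7.5 g a.i. per 10 ares), given by dropper as diluted emulsifiable concentrate directly after sowing weeds 0–1 cm deep. Effect evaluated after 14 days in duplicate.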

Digitaria ciliaris [15] = assay: Test Example 8: herbicidal effect test by stem and leaf treatment in upland field (low dose); conditions: Digitaria ciliaris; 7.5 g per 10 ares; sprayed seven days after sowing, upland soil; 14 days after application; read-out: weed inhibition rate
Echinochloa crus-galli [16] = assay: as above; conditions: Echinochloa crus-galli; 7.5 g per 10 ares; sprayed seven days after sowing, upland soil; 14 days after application; read-out: weed inhibition rate

Cc1ccccc1CO[C@@H]1C[C@]2(C(C)C)O[C@@]1(C)C=C2c1ccccc1 [3-175, (1R,4S,5R)-1-isopropyl-4-methyl-5-((2-methylbenzyl)oxy)-2-phenyl-7-oxabicyclo[2.2.1]hept-2-ene]
≥ 80%: inhibition at 1200 g/ha (Digitaria ciliaris [1]) | inhibition at 1200 g/ha (Echinochloa crus-galli [2]) | pest or weed control at 1200 g/ha [3] | inhibition at 1200 g/ha (Digitaria ciliaris [4]) | inhibition at 1200 g/ha (Echinochloa crus-galli [5]) | pest or weed control at 1200 g/ha (Monochoria vaginalis [6]) | inhibition at 1200 g/ha (Monochoria vaginalis [7]) | inhibition at 1200 g/ha [8]

CC(C)[C@]12C[C@@H](OCc3ccccc3)[C@](C)(CC1=O)O2 [2-1, (1R,4S,5R)-5-(benzyloxy)-1-isopropyl-4-methyl-7-oxabicyclo[2.2.1]heptan-2-one]
≥ 80%: inhibition at 1200 g/ha (Digitaria ciliaris [1]) | inhibition at 1200 g/ha (Echinochloa crus-galli [2]) | pest or weed control at 1200 g/ha [3] | inhibition at 1200 g/ha (Digitaria ciliaris [4]) | inhibition at 1200 g/ha (Echinochloa crus-galli [5]) | pest or weed control at 1200 g/ha (Monochoria vaginalis [6]) | inhibition at 1200 g/ha (Monochoria vaginalis [7]) | inhibition at 1200 g/ha [8]

Cc1ccccc1CO[C@H]1C[C@]2(C)O[C@@]1(C(C)C)C[C@H]2OCc1ccccc1C [1-597, (1S,2R,4R,5S)-1-methyl-2,5-bis[(2-methylphenyl)methoxy]-4-isopropyl-7-oxabicyclo[2.2.1]heptane]
≥ 80%: pest or weed control at 1200 g/ha (Scirpus juncoides [9]) | pest or weed control at 1200 g/ha [3] | inhibition at 1200 g/ha (Digitaria ciliaris [4]) | inhibition at 1200 g/ha (Echinochloa crus-galli [5]) | pest or weed control at 1200 g/ha (Monochoria vaginalis [6]) | inhibition at 1200 g/ha (Scirpus juncoides [10]) | inhibition at 1200 g/ha (Monochoria vaginalis [7]) | inhibition at 1200 g/ha [8]

CC(C)[C@]12C[C@@H](OCc3ccccc3F)[C@](C)(CC13OCCO3)O2 [1-936, (1R,4S,5R)-5-((2-fluorobenzyl)oxy)-1-isopropyl-4-methyl-7-oxaspiro[bicyclo[2.2.1]heptane-2,2'-[1,3]dioxolane]]
≥ 80%: inhibition at 1200 g/ha (Digitaria ciliaris [1]) | inhibition at 1200 g/ha (Echinochloa crus-galli [2]) | pest or weed control at 1200 g/ha (Scirpus juncoides [9]) | pest or weed control at 1200 g/ha [3] | inhibition at 1200 g/ha (Echinochloa crus-galli [5]) | pest or weed control at 1200 g/ha (Monochoria vaginalis [6]) | inhibition at 1200 g/ha [8]

CC(C)[C@]12C[C@@H](OCc3ccccc3C#N)[C@](C)(CC1=O)O2 [2-354, 2-((((1S,2R,4R)-4-isopropyl-1-methyl-5-oxo-7-oxabicyclo[2.2.1]heptan-2-yl)oxy)methyl)benzonitrile]
≥ 80%: inhibition at 1200 g/ha (Digitaria ciliaris [1]) | inhibition at 1200 g/ha (Echinochloa crus-galli [2]) | pest or weed control at 1200 g/ha (Scirpus juncoides [9]) | pest or weed control at 1200 g/ha [3] | inhibition at 1200 g/ha (Digitaria ciliaris [4]) | inhibition at 75 g/ha [11] | inhibition at 1200 g/ha (Echinochloa crus-galli [5]) | pest or weed control at 1200 g/ha (Monochoria vaginalis [6]) | inhibition at 1200 g/ha (Scirpus juncoides [10]) | inhibition at 1200 g/ha [8] | inhibition at 75 g/ha (Digitaria ciliaris [12]) | inhibition at 75 g/ha (Echinochloa crus-galli [13]) | inhibition at 75 g/ha [14]

CC(C)[C@]12C[C@@H](OCc3ccccc3F)[C@](C)(C=C1c1ccccc1)O2 [3-177, (1R,4S,5R)-5-((2-fluorobenzyl)oxy)-1-isopropyl-4-methyl-2-phenyl-7-oxabicyclo[2.2.1]hept-2-ene]
≥ 80%: inhibition at 1200 g/ha (Digitaria ciliaris [1]) | inhibition at 1200 g/ha (Echinochloa crus-galli [2]) | pest or weed control at 1200 g/ha (Scirpus juncoides [9]) | pest or weed control at 1200 g/ha [3] | inhibition at 1200 g/ha (Digitaria ciliaris [4]) | inhibition at 75 g/ha [11] | inhibition at 1200 g/ha (Echinochloa crus-galli [5]) | pest or weed control at 1200 g/ha (Monochoria vaginalis [6]) | inhibition at 1200 g/ha (Scirpus juncoides [10]) | inhibition at 1200 g/ha (Monochoria vaginalis [7]) | inhibition at 1200 g/ha [8]

CC(C)C12CC(OCc3cccs3)C(C)(CC1Br)O2 (stereo not drawn) [1-1389, 5-bromo-1-methyl-4-isopropyl-2-(thiophen-2-ylmethoxy)-7-oxabicyclo[2.2.1]heptane]
≥ 80%: inhibition at 1200 g/ha (Digitaria ciliaris [1]) | inhibition at 1200 g/ha (Echinochloa crus-galli [2]) | pest or weed control at 1200 g/ha (Scirpus juncoides [9]) | pest or weed control at 1200 g/ha [3] | inhibition at 1200 g/ha (Digitaria ciliaris [4]) | inhibition at 75 g/ha [11] | inhibition at 1200 g/ha (Echinochloa crus-galli [5]) | inhibition at 1200 g/ha (Scirpus juncoides [10]) | inhibition at 1200 g/ha [8] | inhibition at 75 g/ha (Digitaria ciliaris [15]) | inhibition at 75 g/ha (Echinochloa crus-galli [16]) | inhibition at 75 g/ha (Digitaria ciliaris [12]) | inhibition at 75 g/ha (Echinochloa crus-galli [13]) | inhibition at 75 g/ha [14]

CC(C)[C@]12C[C@@H](OCc3ccsc3)[C@](C)(C[C@@H]1Cl)O2 [1-662, (1R,2S,4S,5R)-2-chloro-1-isopropyl-4-methyl-5-(3-thienylmethoxy)-7-oxabicyclo[2.2.1]heptane]
≥ 80%: inhibition at 1200 g/ha (Digitaria ciliaris [1]) | inhibition at 1200 g/ha (Echinochloa crus-galli [2]) | pest or weed control at 1200 g/ha (Scirpus juncoides [9]) | pest or weed control at 1200 g/ha [3] | inhibition at 1200 g/ha (Digitaria ciliaris [4]) | inhibition at 75 g/ha [11] | inhibition at 1200 g/ha (Echinochloa crus-galli [5]) | inhibition at 1200 g/ha (Scirpus juncoides [10]) | inhibition at 1200 g/ha [8] | inhibition at 75 g/ha (Digitaria ciliaris [15]) | inhibition at 75 g/ha (Echinochloa crus-galli [16]) | inhibition at 75 g/ha (Digitaria ciliaris [12]) | inhibition at 75 g/ha (Echinochloa crus-galli [13]) | inhibition at 75 g/ha [14]

CC(C)[C@]12C[C@@H](OCc3ccsc3)[C@](C)(C[C@@H]1I)O2 [1-789, (1R,2S,4S,5R)-2-iodo-1-isopropyl-4-methyl-5-(3-thienylmethoxy)-7-oxabicyclo[2.2.1]heptane]
≥ 80%: inhibition at 1200 g/ha (Digitaria ciliaris [1]) | inhibition at 1200 g/ha (Echinochloa crus-galli [2]) | pest or weed control at 1200 g/ha (Scirpus juncoides [9]) | pest or weed control at 1200 g/ha [3] | inhibition at 1200 g/ha (Digitaria ciliaris [4]) | inhibition at 75 g/ha [11] | inhibition at 1200 g/ha (Echinochloa crus-galli [5]) | inhibition at 1200 g/ha (Scirpus juncoides [10]) | inhibition at 1200 g/ha [8] | inhibition at 75 g/ha (Digitaria ciliaris [15]) | inhibition at 75 g/ha (Echinochloa crus-galli [16]) | inhibition at 75 g/ha (Digitaria ciliaris [12]) | inhibition at 75 g/ha (Echinochloa crus-galli [13]) | inhibition at 75 g/ha [14]

Cc1cccc(C)c1COC1CC2(C(C)C)OC1(C)CC2Cl (stereo not drawn) [1-1610, 5-chloro-2-[(2,6-dimethylphenyl)methoxy]-1-methyl-4-isopropyl-7-oxabicyclo[2.2.1]heptane]
≥ 80%: inhibition at 1200 g/ha (Digitaria ciliaris [1]) | inhibition at 1200 g/ha (Echinochloa crus-galli [2]) | pest or weed control at 1200 g/ha (Scirpus juncoides [9]) | pest or weed control at 1200 g/ha [3] | inhibition at 1200 g/ha (Digitaria ciliaris [4]) | inhibition at 75 g/ha [11] | inhibition at 1200 g/ha (Echinochloa crus-galli [5]) | inhibition at 1200 g/ha (Scirpus juncoides [10]) | inhibition at 1200 g/ha [8] | inhibition at 75 g/ha (Digitaria ciliaris [15]) | inhibition at 75 g/ha (Echinochloa crus-galli [16]) | inhibition at 75 g/ha (Digitaria ciliaris [12]) | inhibition at 75 g/ha (Echinochloa crus-galli [13]) | inhibition at 75 g/ha [14]
